Values joined by “and” are separate entries in the source; they are usually repeats but may differ in a detail not shown here. Equal values may be shown once. Read-outs that look alike come from different tables or passages of the source.
Experiments:
MDA-MB-468 cells [1] = assay: Cytotoxicity dose response (CellTiter-Glo, 48 h); type: cell-based, human
MDA-MB-468 cells [2] = settings: cited from earlier work
MCF 10A (normal cells) = assay: Cytotoxicity dose response (CellTiter-Glo, 48 h); type: cell-based, human
MCF7 cells [3] = assay: cells; type: cell-based, human
U-87 MG cells [4] = assay: cells; type: cell-based
MDA-MB-231 cells = assay: cells; type: cell-based, human
MDA-MB-436 cells = assay: cells; type: cell-based, human
HMEC cells = assay: cells; type: cell-based; settings: Homo sapiens, 48 h
MDA-MB-468 cells [5] = type: cell-based, human
MCF 10A cells = type: cell-based, human
[6] = tested on: extracellular H2O2 in MDA-MB-468 cells; assay: Extracellular H2O2 measurement (Amplex Red assay); type: cell-based, human; settings: MDA-MB-468 at maximum safe ascorbic acid dose, 48 h
[7] = tested on: extracellular H2O2 in MCF7 cells; assay: Extracellular H2O2 measurement (Amplex Red assay); type: cell-based, human; settings: 48 h
[8] = tested on: extracellular H2O2 in U-87 MG cells; assay: Extracellular H2O2 measurement (Amplex Red assay); type: cell-based; settings: U-87 MG at maximum safe ascorbic acid dose, 48 h
[9] = tested on: extracellular H2O2 in MCF 10A cells; assay: Extracellular H2O2 measurement (Amplex Red assay); type: cell-based, human; settings: MCF 10A at maximum safe ascorbic acid dose, 48 h
[10] = tested on: intracellular H2O2 in MDA-MB-468 cells; assay: Intracellular H2O2 measurement (AbGreen indicator); type: cell-based, human; settings: MDA-MB-468 under ascorbic acid treatment, 48 h
MDA-MB-468 cells [11] = type: cell-based, human; remark: listed apart in the source
[12] = tested on: MDA-MB-468 breast cancer xenograft; set-up: species or system immune-deficient female nude mice; settings: mouse, in vivo
MCF7 cells [13] = tested on: MCF7 cells
U-87 MG cells [14] = tested on: U-87 MG cells

Question: With `O=C(O)CCCc1ccc(N(CCCl)CCCl)cc1` [Chlorambucil] as the molecule, how does the “Fold Change” value (MDA-MB-468 cells [1]) read?
Answer: Its value is 1 fold.

Question: And the IC50 (MDA-MB-468 cells [1]; Homo sapiens, MDA-MB-468, 48 h)?
Answer: The IC50 was 30.2 ± 2.3 µM.

Question: What about the IC50 (MDA-MB-468 cells [1]; Homo sapiens, MDA-MB-468, read-out: IC50 in combination with Vitamin C Safe Dose) of the same molecule?
Answer: The IC50 was 28.7 ± 2.4 µM.

Question: What about the IC50 (MDA-MB-468 cells [2]) of the same molecule?
Answer: The IC50 was 34.4 µM.

Question: Which results are given for `O=C(OC1Cc2c(O)cc(O)cc2OC1c1cc(O)c(O)c(O)c1)c1cc(O)c(O)c(O)c1` (stereo not drawn) [EGCG]?
Answer: MSD (Maximum Safe Dose) (MDA-MB-468 cells [1]): 12.50 µM; SI (Selectivity Index) (MDA-MB-468 cells [1]): 0.5; SI of Prodrug Combined with Maximum Safety Dose of Pro-oxidant (MDA-MB-468 cells [1]): 2; IC50 (MDA-MB-468 cells [1]; Homo sapiens, MDA-MB-468, 48 h): 65 ± 3.45 µM; MSD (Maximum Safe Dose) (MCF 10A (normal cells)): 6.25 µM; IC50 (MCF 10A (normal cells); Homo sapiens, MCF-10A, 48 h): 28.5 ± 2.55 µM

Question: For `COc1cc(/C=C/C(=O)N2CCC=CC2=O)cc(OC)c1OC` [Piperlogumine], which “MSD (Maximum Safe Dose)” value (MDA-MB-468 cells [1]) is on record?
Answer: The value was 0.78 µM.

Question: What about the “SI (Selectivity Index)” value (MDA-MB-468 cells [1]) of the same molecule?
Answer: Its value is 2.

Question: What about the “SI of Prodrug Combined with Maximum Safety Dose of Pro-oxidant” value (shortened to “SI of Prodrug Combined”) (MDA-MB-468 cells [1]) of the same molecule?
Answer: The value was 6.

Question: What about the IC50 (MDA-MB-468 cells [1]; Homo sapiens, MDA-MB-468, 48 h) of the same molecule?
Answer: Its IC50 is 2.24 ± 0.05 µM.

Question: What about the “MSD (Maximum Safe Dose)” value (MCF 10A (normal cells)) of the same molecule?
Answer: The value was 1.56 µM.

Question: And the IC50 (MCF 10A (normal cells); Homo sapiens, MCF-10A, 48 h)?
Answer: The IC50 was 4.91 ± 0.51 µM.

Question: With `CCCOC(=O)c1cc(O)c(O)c(O)c1` [Propyl Gallate] as the molecule, how does the “MSD (Maximum Safe Dose)” value (MDA-MB-468 cells [1]) read?
Answer: The value was 25.00 µM.

Question: And the “SI (Selectivity Index)” value (MDA-MB-468 cells [1])?
Answer: Its value is 1.

Question: What about the “SI of Prodrug Combined” value (MDA-MB-468 cells [1]) of the same molecule?
Answer: Its value is 3.

Question: What about the IC50 (MDA-MB-468 cells [1]; Homo sapiens, MDA-MB-468, 48 h) of the same molecule?
Answer: Its IC50 is 49.2 ± 1.83 µM.

Question: What about the “MSD (Maximum Safe Dose)” value (MCF 10A (normal cells)) of the same molecule?
Answer: Its value is 12.50 µM.

Question: What about the IC50 (MCF 10A (normal cells); Homo sapiens, MCF-10A, 48 h) of the same molecule?
Answer: The IC50 was 51.4 ± 5.45 µM.

Question: With `O=c1c(O)c(-c2ccc(O)c(O)c2)oc2cc(O)cc(O)c12` [Quercetin] as the molecule, how does the “MSD (Maximum Safe Dose)” value (MDA-MB-468 cells [1]) read?
Answer: Its value is 3.13 µM.

Question: And the IC50 (MDA-MB-468 cells [1]; Homo sapiens, MDA-MB-468, 48 h)?
Answer: The IC50 was 15.8 ± 2.15 µM.

Question: And the “MSD (Maximum Safe Dose)” value (MCF 10A (normal cells))?
Answer: Its value is 6.25 µM.

Question: What about the IC50 (MCF 10A (normal cells); Homo sapiens, MCF-10A, 48 h) of the same molecule?
Answer: Its IC50 is 19.6 ± 1.24 µM.

Question: For `O=C1O[C@H]([C@@H](O)CO)C(O)=C1O` [Vitamin C], which “Maximum Safe Dose (MSD)” value (MDA-MB-468 cells [1]) is on record?
Answer: Its value is 1 mM and 1.00 mM.

Question: What about the IC50 (MCF7 cells [3]) of the same molecule?
Answer: The IC50 was 970 ± 70 µM.

Question: What about the “Maximum Safe Dose (MSD)” value (MCF7 cells [3]) of the same molecule?
Answer: Its value is 0.25 mM.

Question: What about the IC50 (MCF7 cells [3]; Homo sapiens, MCF7, 48 h) of the same molecule?
Answer: Its IC50 is 1000 µM.

Question: What about the “Maximum Safe Dose (MSD)” value (U-87 MG cells [4]) of the same molecule?
Answer: The value was 0.3 mM and 0.30 mM.

Question: And the IC50 (U-87 MG cells [4]; Homo sapiens, U-87 MG, 48 h)?
Answer: Its IC50 is 1000 µM.

Question: And the IC50 (MCF 10A (normal cells))?
Answer: The IC50 was 4200 ± 400 µM.

Question: What about the “Maximum Safe Dose (MSD)” value (MCF 10A (normal cells)) of the same molecule?
Answer: Its value is 1.25 mM.

Question: What about the “Maximum Safe Dose (MSD)” value (MDA-MB-231 cells) of the same molecule?
Answer: Its value is 1 mM.

Question: What about the IC50 (MDA-MB-231 cells; Homo sapiens, MDA-MB-231, 48 h) of the same molecule?
Answer: The IC50 was 2230 ± 300 µM.

Question: And the “Maximum Safe Dose (MSD)” value (MDA-MB-436 cells)?
Answer: Its value is 1 mM.

Question: And the IC50 (MDA-MB-436 cells; Homo sapiens, MDA-MB-436, 48 h)?
Answer: Its IC50 is 1390 ± 100 µM.

Question: What about the IC50 (HMEC cells) of the same molecule?
Answer: Its IC50 is 2670 ± 400 µM.

Question: And the “dose found to be safe” value (MDA-MB-468 cells [5])?
Answer: The value was 1 mM.

Question: And the “dose found to be safe” value (MCF 10A cells)?
Answer: Its value is 1 mM.

Question: And the “extracellular H2O2 level” value [6]?
Answer: The value was “around 10 μM”.

Question: What about the “H2O2 generated (most substantial change)” value ([7]; MCF7, increasing mM ascorbic acid) of the same molecule?
Answer: The value was “over 20 μM”.

Question: And the “extracellular H2O2 level” value ([7]; MCF7 at maximum safe ascorbic acid dose)?
Answer: Its value is roughly 7 µM.

Question: What about the “extracellular H2O2 level” value [8] of the same molecule?
Answer: The value was roughly 7 µM.

Question: And the “extracellular H2O2 level” value [9]?
Answer: Its value is roughly 5 µM.

Question: And the “intracellular H2O2 level compared to untreated samples” value [10]?
Answer: Its value is “significant threefold increase”.

Question: What about the “observable DNA damage” value (MDA-MB-468 cells [11]) of the same molecule?
Answer: The value was “did not show any observable DNA damage”.

Question: And the “effect on tumor size” value [12]?
Answer: The value was “observable inhibitory effects on the tumor size”.

Question: What about the “dose found to be safe” value (MCF7 cells [13]) of the same molecule?
Answer: The value was 0.25 mM.

Question: What about the “dose found to be safe” value (U-87 MG cells [14]) of the same molecule?
Answer: The value was 0.25 mM.

Question: Which “MSD (Maximum Safe Dose)” value (MDA-MB-468 cells [1]) does the source give for `Cc1c(C)c2c(c(C)c1O)CCC(C)(CCCC(C)CCCC(C)CCCC(C)C)O2` (stereo not drawn) [Vitamin E] here?
Answer: Its value is 1.56 µM.

Question: What about the “SI (Selectivity Index)” value (MDA-MB-468 cells [1]) of the same molecule?
Answer: Its value is 5.

Question: And the “SI of Prodrug Combined” value (MDA-MB-468 cells [1])?
Answer: The value was 11.

Question: What about the IC50 (MDA-MB-468 cells [1]; Homo sapiens, MDA-MB-468, 48 h) of the same molecule?
Answer: Its IC50 is 76.5 ± 6.62 µM.

Question: What about the “MSD (Maximum Safe Dose)” value (MCF 10A (normal cells)) of the same molecule?
Answer: Its value is 25.00 µM.

Question: And the IC50 (MCF 10A (normal cells); Homo sapiens, MCF-10A, 48 h)?
Answer: Its IC50 is 376 ± 21.4 µM.

Question: Which “MSD (Maximum Safe Dose)” value (MDA-MB-468 cells [1]) does the source give for `CC1(C)CCC2=C(O1)c1ccccc1C(=O)C2=O` [β-Lapachone] here?
Answer: The value was 0.78 µM.

Question: What about the “SI (Selectivity Index)” value (MDA-MB-468 cells [1]) of the same molecule?
Answer: Its value is 3.

Question: And the “SI of Prodrug Combined” value (MDA-MB-468 cells [1])?
Answer: The value was 2.

Question: And the IC50 (MDA-MB-468 cells [1]; Homo sapiens, MDA-MB-468, 48 h)?
Answer: The IC50 was 1.06 ± 0.17 µM.

Question: What about the “MSD (Maximum Safe Dose)” value (MCF 10A (normal cells)) of the same molecule?
Answer: Its value is 1.56 µM.

Question: And the IC50 (MCF 10A (normal cells); Homo sapiens, MCF-10A, 48 h)?
Answer: Its IC50 is 3.42 ± 0.22 µM.

Question: What does the source list for Arsenic Trioxide?
Answer: MSD (Maximum Safe Dose) (MDA-MB-468 cells [1]): 0.79 µM; SI (Selectivity Index) (MDA-MB-468 cells [1]): 1; SI of Prodrug Combined with Maximum Safety Dose of Pro-oxidant (MDA-MB-468 cells [1]): 5; IC50 (MDA-MB-468 cells [1]; read-out: IC50): 6.27 ± 0.33 µM; MSD (Maximum Safe Dose) (MCF 10A (normal cells)): 1.56 µM; IC50 (MCF 10A (normal cells); read-out: IC50): 8.52 ± 0.4 µM

Reference: patent US20260207641A1, “COMBINATION THERAPY FOR CANCER USING ROS-ACTIVATED PRODRUGS AND ROS-AMPLIFYING THERAPEUTICS” (UWM Research Foundation, Inc., priority 2023, published 2026)
